{
  "source": "patent US20070259939A1",
  "about": "“USING NALTREXONE AS A MULTI-PURPOSE HEALTH SUPPLEMENT TO IMPROVE THE HUMAN CONDITION AND PREVENTING MULTIPLE DISEASES AND INFIRMITIES BY STIMULATING IMMUNE SYSTEM VITALITY AND ROBUSTNESS” (ACCELERATED TECHNOLOGIES, priority 2006, published 2007)",
  "key": {"[1]": {"details": "low dose levels; cited from earlier work"}, "beta-endorphins": {"test_system": "beta-endorphins", "details": "small doses each night; following days; patients who initially had deficient endorphin levels; cited from earlier work"}, "cancer patients": {"test_system": "cancer patients", "details": "low dose naltrexone; cited from earlier work"}, "alcohol cravings": {"test_system": "alcohol cravings", "test": "inhibition of alcohol cravings by low dose naltrexone", "type": "in vivo, human", "text": "Naltrexone is already known to help cure addictive behaviors, such as alcoholism, opiate, narcotic and tobacco addiction. With respect to the treatment of alcohol addiction, naltrexone may be effective because it eliminates the neural positive reinforcement normally experienced in the brain by blocking the receptors that provide the stimulatory effect felt from alcohol. As a result of the lack of positive reinforcement, there is no internal incentive to drink alcohol. In a similar manner, in another embodiment of the invention, the daily administration of low dose naltrexone may greatly reduce or eliminate the tendency to engage in addictive behavior by preventing its onset. This may be accomplished by diminishing any potential internal rewards for using chemical substances in the first place. […] The diminished desire for alcohol resulting from a low dose of naltrexone may be effective for more than 24 hours, thus for example a dose administered at 7:00 pm one evening may continue to inhibit alcohol cravings throughout the following evening. A person in need of curbing an alcoholic appetite may take a pill, either before or along with the drink, and discover no desire for a second or third drink. To further eliminate an alcoholic appetite, a series of 1.5 mg naltrexone doses may be taken without alcohol, starting for example at about 6:00 pm."}},
  "data": [
    {"smiles": "O=C1CC[C@@]2(O)[C@H]3Cc4ccc(O)c5c4[C@@]2(CCN3CC2CC2)[C@H]1O5", "note": "[naltrexone]", "values": [
      {"measurement": "side effects", "setting": "[1]", "value": "not known to have any important side effects"},
      {"measurement": "increase in beta-endorphins circulating in the blood", "setting": "beta-endorphins", "value": "200-300%"},
      {"measurement": "cancer patients with a positive effect (for example stopping the spread of tumors)", "setting": "cancer patients", "value": "≤ 65", "unit": "%"},
      {"measurement": "cancer patients with remission", "setting": "cancer patients", "value": 30, "unit": "%"},
      {"measurement": "effect on alcohol cravings", "setting": "alcohol cravings; low dosage, around 4.5 mg", "value": "greatly inhibit alcohol cravings"},
      {"measurement": "duration of diminished desire for alcohol", "setting": "alcohol cravings; low dose of naltrexone", "value": "more than 24 hours"}
    ]}
  ]
}
